Measured values as given in ChEMBL document CHEMBL1146644, “High-throughput identification of fucosyltransferase inhibitors using carbohydrate microarrays” (Bioorg Med Chem Lett, 2004).

Columns and labels:
[1] = molecular target: T1, 4-galactosyl-N-acetylglucosaminide 3-alpha-L-fucosyltransferase FUT6 (Homo sapiens, UniProt P51993); assay: Inhibitory concentration required against Fucosyltransferase 6
T1 sequence (P51993 whole entry): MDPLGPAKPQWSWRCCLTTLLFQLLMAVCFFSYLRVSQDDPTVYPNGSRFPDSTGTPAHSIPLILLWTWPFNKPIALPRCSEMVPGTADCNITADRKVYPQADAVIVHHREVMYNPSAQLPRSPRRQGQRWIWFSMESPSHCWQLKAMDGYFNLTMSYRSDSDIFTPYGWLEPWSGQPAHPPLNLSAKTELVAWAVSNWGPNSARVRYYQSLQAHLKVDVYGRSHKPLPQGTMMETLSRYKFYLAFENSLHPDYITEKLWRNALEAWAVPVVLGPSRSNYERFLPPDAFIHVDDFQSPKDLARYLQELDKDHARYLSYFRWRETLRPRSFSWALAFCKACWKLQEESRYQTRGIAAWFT

[2] = molecular target: T1, 4-galactosyl-N-acetylglucosaminide 3-alpha-L-fucosyltransferase FUT6; assay: Compound was tested for binding affinity against Fucosyltransferase 6

SMILES	IC50 [1] [nM]	Ki [2] [nM]
Nc1nc(O)c2ncn(C3O[C@H](COP(=O)(O)OP(=O)(O)OCc4cn(CCCCC(=O)NC5=CC6C(=O)c7ccccc7C(=O)C6C=C5)nn4)[C@@H](O)[C@H]3O)c2n1 (stereo not given in full)	1890	511
Nc1nc2c(ncn2C2O[C@H](COP(=O)(O)OP(=O)(O)OCc3cn(CCCC(=O)NC(Cc4ccccc4)c4ccccc4)nn3)[C@@H](O)[C@H]2O)c(=O)[nH]1 (stereo not given in full)	3960	1070
Nc1nc2c(ncn2C2O[C@H](COP(=O)(O)OP(=O)(O)OCc3cn(CCC(=O)NCc4cccc5ccccc45)nn3)[C@@H](O)[C@H]2O)c(=O)[nH]1 (stereo not given in full)	3340	901
Nc1nc(O)c2ncn(C3O[C@H](COP(=O)(O)OP(=O)(O)OCc4cn(CCCCC(=O)NC(Cc5ccccc5)c5ccccc5)nn4)[C@@H](O)[C@H]3O)c2n1 (stereo not given in full)	1390	376
Nc1nc(O)c2ncn(C3O[C@H](COP(=O)(O)OP(=O)(O)OCc4cn(CC(=O)NC(Cc5ccccc5)c5ccccc5)nn4)[C@@H](O)[C@H]3O)c2n1 (stereo not given in full)	1620	437
